These results are taken from US7956070B2, “Piperidines as chemokine modulators (CCR)” (AstraZeneca AB, priority 2004, dated 2011).

System in one series: not listed separately
Description: pKa measurement (Sirius GLpKa). It is filed as physicochemical. The conditions noted are these: ionic strength adjusted (0.10 M KCl) water; Method B: potentiometric method; read-out: pKa (measured using Method B). As for the experimental part:
The pKa of a compound of formula (I) is measured using one of the following methodologies.
The apparatus used consists of a Sirius GLpKa instrument with DPAS (Dip Probe Absorption Spectroscopy) attachment. Key elements of the apparatus are a Sirius pH electrode, stirrer, titrant dispensing tubes, a multi-tipped dispenser, motor driven dispensing syringes, fibre optic UV probe and diode array detector. In addition, solutions in PTFE containers of ionic strength adjusted (0.10 M KCl) distilled water, nominally 0.50 M HCl, nominally 0.50 M KOH and 80% v/v methanol:water are also housed within the instrument. The titration solutions are constantly purged with oxygen free nitrogen. The reservoir for the potassium hydroxide solution is further protected from atmospheric contamination by a soda-lime guard-tube. Samples are placed in titration vessels which in turn are placed in a movable autosampler tray (maximum capacity 48 samples). The electrode, stirrer, dispensing tubing/tips and DPAS probe are housed on a movable, automated z-tower unit, which, controlled by software, positions itself in the appropriate titration vessel when titrating. The Sirius GLpKa instrument is directly connected to a dedicated PC supporting software for assay setup and subsequent data analysis. Assays are set up using the GlpKaControl software and results are analysed using the pKaLOGP and pKaUV software on the PC. The software also allows determination of multiple pKas using complex curve fitting analyses.
Method B: Potentiometric Method
Two types of potentiometric titrations may be performed in order to determine a compound's pKa/pKas; a purely aqueous titration (recommended for fairly water soluble compounds) and a cosolvent titration, where variable amounts of methanol are added to the sample in addition to ionic strength adjusted water (recommended for compounds which are not soluble in water). For the latter, a value for the compound's pKa in pure ionic strength adjusted water can be estimated by the Yasuda-Shedlovsky procedure. This involves measuring the apparent pKa of the compound at three known weight percentages of methanol:water (transposed into reciprocals of the dielectric constants of the medium, 1/εr) and then extrapolating to 0 wt % methanol (1/εr=[…]).
The GLpKa instrument unit also houses two aqueous wash containers (containing distilled water), a waste beaker (to dispense extraneous solutions into) and a container holding pH 7.00 buffer solution for the electrode to be immersed in during periods between titrations. Each time a set of titrations is carried out, these solutions are replaced. Position 1 in the autosampler contains a titration vessel containing pH 7.00 buffer solution (changed for each titration set). For each titration set to be run, position 2 houses a titration vessel into which ionic strength adjusted water is dispensed (typically 15.00 mL). This in turn is adjusted to pH 1.80 with aqueous HCl and then titrated to pH 12.20 by gradual addition of aqueous KOH. This is referred to as a blank titration and is employed by the pKaLogP software in order to calibrate the pH electrode and to standardise the HCl solution, using the so-called four-plus parameter procedure. Periodically, (typically every 3 months, or when the titration solutions run low) the titration solutions are replaced and the KOH solution standardised against potassium hydrogen phthalate using a standardisation procedure within the GLpKaControl software. Between 1-2 mg of each sample must be accurately weighed out. Samples are placed in provided glass titration vessels. The weight of compound must be entered into the GLpKaControl software. […]
As to `O=C(NC[C@@H](O)CN1CCC(Oc2ccc(Cl)c(Cl)c2)CC1)c1sc(=O)[nH]c1C(F)(F)F` [Example 4, N-{(2R)-3-[4-(3,4-Dichlorophenoxy)piperidin-1-yl]-2-hydroxypropyl}-2,3-dihydro-2-oxo-4-(trifluoromethyl)-5-thiazolecarboxamide], the pKa is 4.7.

For `CSc1[nH]nnc1C(=O)NC[C@@H](O)CN1CCC(Oc2ccc(Cl)c(Cl)c2)CC1` [Example 36, N-{(2R)-3-[4-(3,4-Dichlorophenoxy)piperidin-1-yl]-2-hydroxypropyl}-5-(methylthio)-1H-1,2,3-triazole-4-carboxamide], the pKa was 5.5. On the same count and under the same terms, for `O=C(NC[C@@H](O)CN1CCC(Oc2ccc(Cl)c(Cl)c2)CC1)c1sc(=O)[nH]c1CC(F)(F)F` [Example 33, N-{(2R)-3-[4-(3,4-Dichlorophenoxy)piperidin-1-yl]-2-hydroxypropyl}-2-oxo-4-(2,2,2-trifluoroethyl)-2,3-dihydro-1,3-thiazole-5-carboxamide] the value was 6.6; for `O=C(NC[C@@H](O)CN1CCC(Oc2ccc(Cl)c(Cl)c2)CC1)c1nn[nH]c1SCC(F)(F)F` [Example 19, N-{(2R)-3-[4-(3,4-Dichlorophenoxy)piperidin-1-yl]-2-hydroxypropyl}-5-[(2,2,2-trifluoroethyl)thio]-1H-1,2,3-triazole-4-carboxamide], 5.2; for `O=C(NC[C@@H](O)CN1CCC(Oc2ccc(Cl)c(Cl)c2)CC1)c1ccc(=O)[nH]c1C(F)(F)F` [Example 1, N-{(2R)-3-[4-(3,4-Dichlorophenoxy)piperidin-1-yl]-2-hydroxypropyl}-6-oxo-2-(trifluoromethyl)-1,6-dihydropyridine-3-carboxamide], 5.9. Turning to `Cc1c(Cl)ccc(OC2CCN(C[C@H](O)CNC(=O)c3cc(C#N)c(=O)[nH]c3C(F)(F)F)CC2)c1Cl` [Example 11, 5-Cyano-N-{(2R)-3-[4-(2,4-dichloro-3-methylphenoxy)piperidin-1-yl]-2-hydroxypropyl}-6-oxo-2-(trifluoromethyl)-1,6-dihydropyridine-3-carboxamide], the pKa was found to be 3. For `Cc1c(OC2CCN(C[C@H](O)CNC(=O)c3sc(=O)[nH]c3C(F)(F)F)CC2)ccc(C#N)c1Cl` [Example 40, N-{(2R)-3-[4-(3-Chloro-4-cyano-2-methylphenoxy)piperidin-1-yl]-2-hydroxypropyl}-2-oxo-4-(trifluoromethyl)-2,3-dihydro-1,3-thiazole-5-carboxamide], the pKa is 4.7.

Consider `O=C(NC[C@@H](O)CN1CCC(Oc2ccc(Cl)c(Cl)c2)CC1)c1nn[nH]c1-c1ccc(F)cc1` [Example 26, N-{(2R)-3-[4-(3,4-Dichlorophenoxy)piperidin-1-yl]-2-hydroxypropyl}-5-(4-fluorophenyl)-1H-1,2,3-triazole-4-carboxamide], for which the pKa stood at 6.1. Turning to `CS(=O)(=O)Nc1nc(C(F)(F)F)c(C(=O)NC[C@@H](O)CN2CCC(Oc3ccc(Cl)c(Cl)c3)CC2)s1` [Example 21, N-{(2R)-3-[4-(3,4-Dichlorophenoxy)piperidin-1-yl]-2-hydroxypropyl}-2-[(methylsulfonyl)amino]-4-(trifluoromethyl)-1,3-thiazole-5-carboxamide], the pKa was 7.5. Still for that read-out and setting: for `O=C(NC[C@@H](O)CN1CCC(Oc2ccc(Cl)c(Cl)c2)CC1)c1nn[nH]c1C(F)(F)F` [Example 38, N-{(2R)-3-[4-(3,4-Dichlorophenoxy)piperidin-1-yl]-2-hydroxypropyl}-5-(trifluoromethyl)-1H-1,2,3-triazole-4-carboxamide] the value was 4; for `N#Cc1cc(C(=O)NC[C@@H](O)CN2CCC(Oc3ccc(Cl)c(Cl)c3)CC2)c(-c2ccccc2)[nH]c1=O` [Example 12, 5-Cyano-N-{(2R)-3-[4-(3,4-dichlorophenoxy)piperidin-1-yl]-2-hydroxypropyl}-6-oxo-2-phenyl-1,6-dihydropyridine-3-carboxamide], 3.

Still in this series, the particulars now being: method not stated; read-out: measured pKa.
As to `Cc1c(OC2CCN(C[C@H](O)CNC(=O)COc3cccc(C(=O)O)c3)CC2)ccc(Cl)c1Cl` [Example 46, 3-[2-({(2R)-3-[4-(3,4-Dichloro-2-methylphenoxy)piperidin-1-yl]-2-hydroxypropyl}amino)-2-oxoethoxy]benzoic acid], the pKa is 2.6.

The target in the next series is T1, human H1 receptor (Homo sapiens, UniProt P35367).
T1 construct: purchased Euroscreen SA, Brussels, Belgium ES-390-M; host or cells: recombinant CHO-K1 cells (membranes)
T1 sequence (P35367 whole entry): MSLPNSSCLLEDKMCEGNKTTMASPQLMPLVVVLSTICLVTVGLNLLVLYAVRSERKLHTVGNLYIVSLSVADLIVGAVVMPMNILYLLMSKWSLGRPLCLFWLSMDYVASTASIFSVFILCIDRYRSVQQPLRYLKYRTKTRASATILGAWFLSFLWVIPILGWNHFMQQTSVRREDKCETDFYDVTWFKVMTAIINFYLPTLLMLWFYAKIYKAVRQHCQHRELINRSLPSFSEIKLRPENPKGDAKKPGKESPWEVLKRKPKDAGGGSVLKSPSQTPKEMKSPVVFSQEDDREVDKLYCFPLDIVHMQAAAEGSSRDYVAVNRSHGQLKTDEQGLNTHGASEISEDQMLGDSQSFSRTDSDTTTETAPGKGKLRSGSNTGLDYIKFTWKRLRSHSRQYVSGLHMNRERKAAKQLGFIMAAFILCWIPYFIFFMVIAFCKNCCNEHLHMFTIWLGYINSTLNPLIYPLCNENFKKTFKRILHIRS
The series is described as follows: Histamine H1 receptor binding, competition displacement of [3H]-pyrilamine. The conditions noted are these: 1 nM [3H]-pyrilamine, membranes from recombinant CHO-K1 cells expressing the human H1 receptor, 1 hour at room temperature; read-out: H1 pKi (converted). As for the experimental part:
Histamine H1 receptor binding activity of compounds of the invention was assessed by competition displacement of 1 nM [3H]-pyrilamine (Amersham, Bucks, Product code TRK 608, specific activity 30 Ci/mmol) to 2 μg membranes prepared from recombinant CHO-K1 cells expressing the human H1 receptor (Euroscreen SA, Brussels, Belgium, product code ES-390-M) in assay buffer (50 mM Tris pH 7.4 containing 2 mM MgCl2, 250 mM sucrose and 100 mM NaCl) for 1 hour at room temperature.
The following compounds of the invention gave inhibition of [3H]pyrilimine binding: […]
(Loss of bound radioactivity is the signal in a displacement assay; it reports binding, not function.)
As to `N#Cc1ccc(OC2CCN(C[C@H](O)CNC(=O)c3sc(=O)[nH]c3C(F)(F)F)CC2)cc1Cl` [Example 27, N-{(2R)-3-[4-(3-Chloro-4-cyanophenoxy)piperidin-1-yl]-2-hydroxypropyl}-2-oxo-4-(trifluoromethyl)-2,3-dihydro-1,3-thiazole-5-carboxamide], the Ki is 251 nM.

For `CN(C[C@@H](O)CN1CCC(Oc2ccc(Cl)c(Cl)c2)CC1)C(=O)c1sc(=O)[nH]c1C(F)(F)F` [Example 5, N-{(2S)-3-[4-(3,4-Dichlorophenoxy)piperidin-1-yl]-2-hydroxypropyl}-N-methyl-2-oxo-4-(trifluoromethyl)-2,3-dihydro-1,3-thiazole-5-carboxamide], the Ki was 126 nM. Consider `O=C(NC[C@@H](O)CN1CCC(Oc2ccc(Cl)c(Cl)c2)CC1)c1oc(=O)[nH]c1C(F)(F)F` [Example 37, N-{(2R)-3-[4-(3,4-Dichlorophenoxy)piperidin-1-yl]-2-hydroxypropyl}-2-oxo-4-(trifluoromethyl)-2,3-dihydro-1,3-oxazole-5-carboxamide], for which the Ki is 200 nM. Still for that read-out and setting: under `Cc1c(OC2CCN(C[C@H](O)CNC(=O)c3ccc(Cl)c(OCC(=O)O)c3)CC2)ccc(Cl)c1Cl` [Example 45, {2-Chloro-5-[({(2R)-3-[4-(3,4-dichloro-2-methylphenoxy)piperidin-1-yl]-2-hydroxypropyl}amino)carbonyl]phenoxy}acetic acid] stands 63.1 nM; under `O=C(NC[C@H](O)CN1CCC(Oc2ccc(Cl)c(Cl)c2)CC1)c1sc(=O)[nH]c1C(F)(F)F` [Example 28, N-{(2S)-3-[4-(3,4-Dichlorophenoxy)piperidin-1-yl]-2-hydroxypropyl}-2-oxo-4-(trifluoromethyl)-2,3-dihydro-1,3-thiazole-5-carboxamide], 39.8 nM; under `Cc1c(OC2CCN(C[C@H](O)CNC(=O)c3sc(=O)[nH]c3C(F)(F)F)CC2)ccc(Cl)c1Cl` [Example 24, N-{(2R)-3-[4-(3,4-Dichloro-2-methylphenoxy)piperidin-1-yl]-2-hydroxypropyl}-2-oxo-4-(trifluoromethyl)-2,3-dihydro-1,3-thiazole-5-carboxamide], 20 nM. The same measure, in the same setting: under `CN(c1[nH]nnc1C(=O)NC[C@@H](O)CN1CCC(Oc2ccc(Cl)c(Cl)c2)CC1)S(C)(=O)=O` [Example 39, N-{(2R)-3-[4-(3,4-Dichlorophenoxy)piperidin-1-yl]-2-hydroxypropyl}-5-[methyl(methylsulfonyl)amino]-1H-1,2,3-triazole-4-carboxamide] stands 126 nM; under `O=C(O)c1ccc(C(=O)NC[C@@H](O)CN2CCC(Oc3ccc(Cl)c(Cl)c3)CC2)c2ccccc12` [Example 20, 4-[({(2R)-3-[4-(3,4-Dichlorophenoxy)piperidin-1-yl]-2-hydroxypropyl}amino)-carbonyl]-1-naphthoic acid], 200 nM.

As to `CC(C)c1[nH]nnc1C(=O)NC[C@@H](O)CN1CCC(Oc2ccc(C#N)c(Cl)c2)CC1` [Example 31, N-{(2R)-3-[4-(3-Chloro-4-cyanophenoxy)piperidin-1-yl]-2-hydroxypropyl}-5-isopropyl-1H-1,2,3-triazole-4-carboxamide], the Ki was 158 nM.

The term pKa denotes the pH at which an ionisable group is half protonated.
